Reference: ChEMBL document CHEMBL3885881, “DrugMatrix”

Species: Rattus norvegicus
Experiment: DrugMatrix - Regimen: Daily Repeat
Assay type: toxicity, organism-based, Sprague-Dawley
Set-up: regimen Daily Repeat, gender Male, age 6-8 weeks
Conditions: in vivo, sc, route subcutaneous, […]; for ABSOLUTE BASOPHIL / ABSOLUTE EOSINOPHIL / ABSOLUTE LYMPHOCYTE / ABSOLUTE MONOCYTE / ABSOLUTE SEGMENTED NEUTROPHIL / BASOPHIL / EOSINOPHIL / ERYTHROCYTE COUNT / HEMATOCRIT / HEMOGLOBIN / LEUKOCYTE COUNT / LYMPHOCYTE / MEAN CORPUSCULAR HEMOGLOBIN / MEAN CORPUSCULAR HEMOGLOBIN CONCENTRATION / MEAN CORPUSCULAR VOLUME / MONOCYTE / NEUTROPHIL / NUCLEATED RED BLOOD CELLS / PLATELET COUNT: tissue Blood; for ALANINE AMINOTRANSFERASE / ALBUMIN / ALKALINE PHOSPHATASE / ASPARTATE AMINOTRANSFERASE / BLOOD UREA NITROGEN / CARBON DIOXIDE / CHLORIDE / CHOLESTEROL / CREATINE PHOSPHOKINASE / CREATININE / GLUCOSE / LACTATE DEHYDROGENASE / LIPASE / PHOSPHORUS / POTASSIUM / SODIUM / TOTAL BILIRUBIN / TOTAL PROTEIN / URIC ACID: tissue Plasma
[1] = 29 mg/kg, 120 h, dose level Low, time 5 day
[2] = 1200 mg/kg, 72 h, dose level High, time 3 day
[3] = 1200 mg/kg, 120 h, dose level High, time 5 day

SMILES: Nc1nc2c(ncn2CCC(CO)CO)c(=O)[nH]1 [PENCICLOVIR]
- ABSOLUTE BASOPHIL [1]: 0 CELLS/uL
- ABSOLUTE EOSINOPHIL [1]: 0 CELLS/uL
- ABSOLUTE LYMPHOCYTE [1]: 9185.33 CELLS/uL
- ABSOLUTE MONOCYTE [1]: 38 CELLS/uL
- ABSOLUTE SEGMENTED NEUTROPHIL [1]: 2710 CELLS/uL
- BASOPHIL [1]: 0%
- EOSINOPHIL [1]: 0%
- ERYTHROCYTE COUNT [1]: 5.6 x10E6/uL
- HEMATOCRIT [1]: 35.77%
- HEMOGLOBIN [1]: 13.33 G/DL
- LEUKOCYTE COUNT [1]: 11.93 x10E3/uL
- LYMPHOCYTE [1]: 77%
- MEAN CORPUSCULAR HEMOGLOBIN [1]: 23.83 pg
- MEAN CORPUSCULAR HEMOGLOBIN CONCENTRATION [1]: 37.27 G/DL
- MEAN CORPUSCULAR VOLUME [1]: 63.8 fL
- MONOCYTE [1]: 0.33%
- NEUTROPHIL [1]: 22.67%
- NUCLEATED RED BLOOD CELLS [1]: 0 /100WBC
- PLATELET COUNT [1]: 979 x10E3/uL
- ALANINE AMINOTRANSFERASE [1]: 64 u/L
- ALBUMIN [1]: 3.9 G/DL
- ALKALINE PHOSPHATASE [1]: 325.67 u/L
- ASPARTATE AMINOTRANSFERASE [1]: 95 u/L
- BLOOD UREA NITROGEN [1]: 19 mg/dL
- CARBON DIOXIDE [1]: 24.67 mmol/L
- CHLORIDE [1]: 105.33 MEQ/L
- CHOLESTEROL [1]: 96.67 mg/dL
- CREATINE PHOSPHOKINASE [1]: 520.33 u/L
- CREATININE [1]: 0.18 mg/dL
- GLUCOSE [1]: 168.33 mg/dL
- LACTATE DEHYDROGENASE [1]: 141.67 u/L
- LIPASE [1]: 8 u/L
- PHOSPHORUS [1]: 14.77 mg/dL
- POTASSIUM [1]: 6.25 MEQ/L
- SODIUM [1]: 144.77 MEQ/L
- TOTAL BILIRUBIN [1]: 0.17 mg/dL
- TOTAL PROTEIN [1]: 5.7 G/DL
- URIC ACID [1]: 1.5 mg/dL
- ABSOLUTE BASOPHIL [2]: 0 CELLS/uL
- ABSOLUTE EOSINOPHIL [2]: 107.33 CELLS/uL
- ABSOLUTE LYMPHOCYTE [2]: 7265 CELLS/uL
- ABSOLUTE MONOCYTE [2]: 87 CELLS/uL
- ABSOLUTE SEGMENTED NEUTROPHIL [2]: 974 CELLS/uL
- BASOPHIL [2]: 0%
- EOSINOPHIL [2]: 1.33%
- ERYTHROCYTE COUNT [2]: 4.97 x10E6/uL
- HEMATOCRIT [2]: 30.73%
- HEMOGLOBIN [2]: 11.67 G/DL
- LEUKOCYTE COUNT [2]: 8.43 x10E3/uL
- LYMPHOCYTE [2]: 86.33%
- MEAN CORPUSCULAR HEMOGLOBIN [2]: 23.43 pg
- MEAN CORPUSCULAR HEMOGLOBIN CONCENTRATION [2]: 37.97 G/DL
- MEAN CORPUSCULAR VOLUME [2]: 61.77 fL
- MONOCYTE [2]: 1%
- NEUTROPHIL [2]: 11.33%
- NUCLEATED RED BLOOD CELLS [2]: 0.33 /100WBC
- PLATELET COUNT [2]: 1398.33 x10E3/uL
- ALANINE AMINOTRANSFERASE [2]: 36 u/L
- ALBUMIN [2]: 3.13 G/DL
- ALKALINE PHOSPHATASE [2]: 311.67 u/L
- ASPARTATE AMINOTRANSFERASE [2]: 64.33 u/L
- BLOOD UREA NITROGEN [2]: 12.33 mg/dL
- CARBON DIOXIDE [2]: 28 mmol/L
- CHLORIDE [2]: 105.5 MEQ/L
- CHOLESTEROL [2]: 58.33 mg/dL
- CREATINE PHOSPHOKINASE [2]: 201.33 u/L
- CREATININE [2]: 0.19 mg/dL
- GLUCOSE [2]: 132.67 mg/dL
- LACTATE DEHYDROGENASE [2]: 105.67 u/L
- LIPASE [2]: 6.5 u/L
- PHOSPHORUS [2]: 10.63 mg/dL
- POTASSIUM [2]: 5.8 MEQ/L
- SODIUM [2]: 147.5 MEQ/L
- TOTAL BILIRUBIN [2]: 0.0667 mg/dL
- TOTAL PROTEIN [2]: 5.97 G/DL
- URIC ACID [2]: 0.93 mg/dL
- ABSOLUTE BASOPHIL [3]: 0 CELLS/uL
- ABSOLUTE EOSINOPHIL [3]: 219.33 CELLS/uL
- ABSOLUTE LYMPHOCYTE [3]: 14998.67 CELLS/uL
- ABSOLUTE MONOCYTE [3]: 280 CELLS/uL
- ABSOLUTE SEGMENTED NEUTROPHIL [3]: 5502 CELLS/uL
- BASOPHIL [3]: 0%
- EOSINOPHIL [3]: 1%
- ERYTHROCYTE COUNT [3]: 4.92 x10E6/uL
- HEMATOCRIT [3]: 30.6%
- HEMOGLOBIN [3]: 11.77 G/DL
- LEUKOCYTE COUNT [3]: 21 x10E3/uL
- LYMPHOCYTE [3]: 71.33%
- MEAN CORPUSCULAR HEMOGLOBIN [3]: 23.97 pg
- MEAN CORPUSCULAR HEMOGLOBIN CONCENTRATION [3]: 38.47 G/DL
- MEAN CORPUSCULAR VOLUME [3]: 62.2 fL
- MONOCYTE [3]: 1.33%
- NEUTROPHIL [3]: 26.33%
- NUCLEATED RED BLOOD CELLS [3]: 0 /100WBC
- PLATELET COUNT [3]: 2260.33 x10E3/uL
- ALANINE AMINOTRANSFERASE [3]: 31.33 u/L
- ALBUMIN [3]: 2.63 G/DL
- ALKALINE PHOSPHATASE [3]: 297.33 u/L
- ASPARTATE AMINOTRANSFERASE [3]: 73.67 u/L
- BLOOD UREA NITROGEN [3]: 22 mg/dL
- CARBON DIOXIDE [3]: 25.33 mmol/L
- CHLORIDE [3]: 103 MEQ/L
- CHOLESTEROL [3]: 52 mg/dL
- CREATINE PHOSPHOKINASE [3]: 232.33 u/L
- CREATININE [3]: 0.34 mg/dL
- GLUCOSE [3]: 147 mg/dL
- LACTATE DEHYDROGENASE [3]: 216.33 u/L
- LIPASE [3]: 6.67 u/L
- PHOSPHORUS [3]: 12 mg/dL
- POTASSIUM [3]: 6.2 MEQ/L
- SODIUM [3]: 143.07 MEQ/L
- TOTAL BILIRUBIN [3]: 0.1 mg/dL
- TOTAL PROTEIN [3]: 5.73 G/DL
- URIC ACID [3]: 2.3 mg/dL
